ChEMBL document CHEMBL1143321, “Novel imidazole-based histamine H3 antagonists” (Bioorg Med Chem Lett, 2009)

Assays:
Histamine H3 receptor [1] = target: T1, Histamine H3 receptor (Homo sapiens, UniProt Q9Y5N1); assay: Antagonist activity at human histamine H3 receptor; type: functional; settings: read-out: pA2 (converted)
Histamine H3 receptor [2] = target: T1, Histamine H3 receptor; assay: Binding affinity to human histamine H3 receptor
[3] = Metabolic stability in human liver microsomes assessed as half life; type: ADME, Microsome
[4] = Metabolic stability in rat liver microsomes assessed as half life; type: ADME, Microsome
Cytochrome P450 3A4 = Cytochrome P450 3A4 (Homo sapiens, UniProt P08684); assay: Inhibition of CYP3A4; type: ADME
Chain of Cytochrome P450 3A4 (P08684 whole entry): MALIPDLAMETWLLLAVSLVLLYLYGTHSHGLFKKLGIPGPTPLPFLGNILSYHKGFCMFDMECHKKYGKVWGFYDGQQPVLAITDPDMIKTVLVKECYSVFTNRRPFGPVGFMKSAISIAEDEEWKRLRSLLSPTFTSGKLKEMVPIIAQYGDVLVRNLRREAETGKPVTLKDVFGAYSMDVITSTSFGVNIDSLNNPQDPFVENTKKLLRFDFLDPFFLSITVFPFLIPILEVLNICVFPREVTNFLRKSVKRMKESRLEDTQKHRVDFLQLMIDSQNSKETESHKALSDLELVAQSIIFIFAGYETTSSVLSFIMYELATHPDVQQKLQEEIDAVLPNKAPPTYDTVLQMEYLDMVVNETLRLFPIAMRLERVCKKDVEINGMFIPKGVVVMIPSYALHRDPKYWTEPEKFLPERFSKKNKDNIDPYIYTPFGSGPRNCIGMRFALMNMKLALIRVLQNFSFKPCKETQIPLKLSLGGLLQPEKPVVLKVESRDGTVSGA

[5] = Volume of distribution in rat at 10 mg/kg, iv; type: ADME, organism-based; parameters: dose 10 mg/kg, route intravenous; settings: in vivo
[6] = Half life in rat at 10 mg/kg, po; type: ADME, organism-based; parameters: dose 10 mg/kg, route oral; settings: in vivo
[7] = Drug level in rat at 10 mg/kg, ip after 48 hrs; type: ADME, organism-based; parameters: dose 10 mg/kg, route intraperitoneal; settings: in vivo, read-out: Drug uptake
[8] = Plasma concentration in rat 10 mg/kg, ip after 60 mins; type: ADME, organism-based; parameters: dose 10 mg/kg, route intraperitoneal
[9] = Oral bioavailability in rat at 10 mg/kg; type: ADME, organism-based; settings: in vivo
Cytochrome P450 2D6 = Cytochrome P450 2D6 (Homo sapiens, UniProt P10635); assay: Inhibition of CYP2D6; type: ADME
Chain of Cytochrome P450 2D6 (P10635 whole entry): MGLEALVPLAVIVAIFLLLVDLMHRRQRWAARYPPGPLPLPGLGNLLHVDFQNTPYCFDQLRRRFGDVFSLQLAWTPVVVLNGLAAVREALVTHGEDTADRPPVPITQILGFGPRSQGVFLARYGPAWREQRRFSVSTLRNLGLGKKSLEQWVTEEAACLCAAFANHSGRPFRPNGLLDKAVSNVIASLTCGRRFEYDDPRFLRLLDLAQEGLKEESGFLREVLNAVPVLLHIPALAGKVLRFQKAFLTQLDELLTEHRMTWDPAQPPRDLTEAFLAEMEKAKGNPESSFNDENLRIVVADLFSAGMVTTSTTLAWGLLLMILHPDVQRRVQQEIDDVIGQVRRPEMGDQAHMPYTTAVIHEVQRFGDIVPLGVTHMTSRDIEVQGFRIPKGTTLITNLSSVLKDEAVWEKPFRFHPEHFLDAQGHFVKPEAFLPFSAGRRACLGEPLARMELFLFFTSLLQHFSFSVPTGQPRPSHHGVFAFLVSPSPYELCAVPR

Cytochrome P450 2C9 = Cytochrome P450 2C9 (Homo sapiens, UniProt P11712); assay: Inhibition of CYP2C9; type: ADME
Chain of Cytochrome P450 2C9 (P11712 whole entry): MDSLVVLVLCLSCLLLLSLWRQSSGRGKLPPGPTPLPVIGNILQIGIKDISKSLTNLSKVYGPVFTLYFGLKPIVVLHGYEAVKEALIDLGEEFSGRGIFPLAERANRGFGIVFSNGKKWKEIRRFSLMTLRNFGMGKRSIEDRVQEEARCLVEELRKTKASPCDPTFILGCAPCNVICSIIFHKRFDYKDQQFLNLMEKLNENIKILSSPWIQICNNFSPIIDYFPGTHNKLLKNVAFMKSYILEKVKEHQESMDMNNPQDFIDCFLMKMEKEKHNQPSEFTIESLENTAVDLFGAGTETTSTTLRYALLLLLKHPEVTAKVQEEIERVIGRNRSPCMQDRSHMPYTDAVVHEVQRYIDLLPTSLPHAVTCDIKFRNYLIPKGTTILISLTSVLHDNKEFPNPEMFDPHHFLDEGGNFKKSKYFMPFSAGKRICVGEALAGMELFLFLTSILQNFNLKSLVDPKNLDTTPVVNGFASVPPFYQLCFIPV

Histamine H3 receptor [10] = target: Histamine H3 receptor (Rattus norvegicus, UniProt Q9QYN8); assay: Antagonist activity at rat histamine H3 receptor; type: functional; settings: read-out: pA2 (converted)
Chain of Histamine H3 receptor (Rattus norvegicus, UniProt Q9QYN8) (Q9QYN8 whole entry): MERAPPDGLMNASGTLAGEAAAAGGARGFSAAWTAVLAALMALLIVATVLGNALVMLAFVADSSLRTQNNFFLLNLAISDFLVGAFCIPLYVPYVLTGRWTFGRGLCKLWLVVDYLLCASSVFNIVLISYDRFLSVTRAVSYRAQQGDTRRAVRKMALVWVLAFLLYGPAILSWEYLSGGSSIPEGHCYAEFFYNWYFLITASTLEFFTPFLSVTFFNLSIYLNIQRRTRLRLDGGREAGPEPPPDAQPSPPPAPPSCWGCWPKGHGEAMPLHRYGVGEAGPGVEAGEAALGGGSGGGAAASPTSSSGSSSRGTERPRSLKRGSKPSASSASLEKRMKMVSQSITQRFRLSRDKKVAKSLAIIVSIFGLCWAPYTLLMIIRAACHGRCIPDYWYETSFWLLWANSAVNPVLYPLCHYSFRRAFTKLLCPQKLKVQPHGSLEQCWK

[11] = Drug level in rat brain at 10 mg/kg, ip after 60 mins; type: ADME, organism-based; parameters: dose 10 mg/kg, route intraperitoneal; settings: read-out: Drug uptake
[12] = Binding affinity to sigma receptor at 10 uM
Cytochrome P450 1A2 = target: T2, Cytochrome P450 1A2 (Homo sapiens, UniProt P05177); assay: Inhibition of CYP1A2; type: ADME
T2 sequence (P05177 whole entry): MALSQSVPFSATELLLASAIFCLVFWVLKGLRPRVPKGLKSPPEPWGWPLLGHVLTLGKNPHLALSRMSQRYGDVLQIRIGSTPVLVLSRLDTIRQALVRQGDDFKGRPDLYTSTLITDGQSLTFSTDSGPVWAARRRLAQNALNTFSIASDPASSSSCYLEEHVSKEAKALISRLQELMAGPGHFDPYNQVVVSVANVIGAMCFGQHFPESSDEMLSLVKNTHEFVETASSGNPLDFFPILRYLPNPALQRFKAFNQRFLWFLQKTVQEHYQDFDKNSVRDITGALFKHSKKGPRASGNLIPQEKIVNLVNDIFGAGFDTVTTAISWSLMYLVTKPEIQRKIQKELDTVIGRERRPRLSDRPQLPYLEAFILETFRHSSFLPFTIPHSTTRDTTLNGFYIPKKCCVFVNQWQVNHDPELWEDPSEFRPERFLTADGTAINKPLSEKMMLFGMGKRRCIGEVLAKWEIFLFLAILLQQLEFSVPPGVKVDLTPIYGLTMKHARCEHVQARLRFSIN

Cytochrome P450 2C19 = Cytochrome P450 2C19 (Homo sapiens, UniProt P33261); assay: Inhibition of CYP2C19; type: ADME
Chain of Cytochrome P450 2C19 (P33261 whole entry): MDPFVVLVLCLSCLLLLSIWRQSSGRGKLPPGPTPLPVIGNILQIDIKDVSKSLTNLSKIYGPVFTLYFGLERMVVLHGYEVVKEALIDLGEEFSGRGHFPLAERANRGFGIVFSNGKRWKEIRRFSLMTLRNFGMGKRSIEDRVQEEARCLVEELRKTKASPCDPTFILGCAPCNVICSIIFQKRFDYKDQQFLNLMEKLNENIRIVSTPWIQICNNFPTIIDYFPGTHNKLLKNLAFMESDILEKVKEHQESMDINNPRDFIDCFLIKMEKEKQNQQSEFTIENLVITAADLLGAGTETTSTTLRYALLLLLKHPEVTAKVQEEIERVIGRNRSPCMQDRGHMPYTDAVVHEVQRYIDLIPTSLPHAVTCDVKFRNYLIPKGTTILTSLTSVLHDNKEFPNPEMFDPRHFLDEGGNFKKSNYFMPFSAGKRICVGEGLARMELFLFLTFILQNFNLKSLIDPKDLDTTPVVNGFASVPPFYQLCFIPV

[13] = Clearance in rat at 10 mg/kg, iv; type: ADME, organism-based; parameters: dose 10 mg/kg, route intravenous; settings: in vivo

T1 sequence (Q9Y5N1 whole entry): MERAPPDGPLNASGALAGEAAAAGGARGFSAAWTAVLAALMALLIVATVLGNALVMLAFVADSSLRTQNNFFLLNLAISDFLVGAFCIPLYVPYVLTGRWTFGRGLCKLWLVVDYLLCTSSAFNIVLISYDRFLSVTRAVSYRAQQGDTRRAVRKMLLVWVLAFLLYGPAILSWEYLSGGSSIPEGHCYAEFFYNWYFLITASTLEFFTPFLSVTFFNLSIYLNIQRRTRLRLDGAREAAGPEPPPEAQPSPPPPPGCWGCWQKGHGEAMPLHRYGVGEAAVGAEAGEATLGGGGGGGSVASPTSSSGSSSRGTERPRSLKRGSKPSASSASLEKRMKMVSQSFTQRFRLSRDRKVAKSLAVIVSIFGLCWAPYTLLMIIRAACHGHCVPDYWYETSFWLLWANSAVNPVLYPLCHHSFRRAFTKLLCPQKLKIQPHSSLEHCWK

SMILES	Kb (Histamine H3 receptor [1])	Ki (Histamine H3 receptor [2])	also measured
CC(C)N1CCC(COc2ncc(C(=O)c3ccc(Br)cc3)n2C)CC1	0.794 nM	3 nM	–
Cn1c(C(=O)c2ccc(Cl)cc2)cnc1CCCCN1CCCCC1	10 nM	24 nM	half-life [3]: 2.98 h; half-life [4]: 0.0667 h
CC(C)N1CCC(COc2ncc(C(=O)c3ccc([N+](=O)[O-])cc3)n2C)CC1	1 nM	4 nM	–
CC(C)N1CCC(COc2ncc(C(=O)c3ccc(F)cc3)n2C)CC1	0.316 nM	3 nM	–
CC(C)N1CCC(CCOc2ncc(C(=O)c3ccc(Cl)cc3)n2C)CC1	79.4 nM	70 nM	–
CC(C)CCCSc1ncc(C(=O)c2ccc(Cl)cc2)n1C	10000 nM	> 5000 nM	–
Cn1c(C(=O)c2ccc(Cl)cc2)cnc1SCCCCN1CCCCC1	–	50 nM	–
CC(C)N1CCC(COc2ncc(C(=O)c3ccccc3)n2C)CC1	0.316 nM	1 nM	–
CC(C)N1CCC(COc2ncc(C(=O)c3cc(Cl)cc(Cl)c3)n2C)CC1	1 nM	–	–
CN(C)CCSc1ncc(Cc2ccc(Cl)cc2)n1C	50.1 nM	71 nM	–
CN(C)CCCSc1ncc(C(O)c2ccc(Cl)cc2)n1C (stereo not given)	3.98 nM	18 nM	–
CN(C)CCCSc1ncc(Cc2ccc(Cl)cc2)n1C	6.31 nM	20 nM	–
CC(C)N1CCC(COc2ncc(C(=O)c3ccc(Cl)cc3)n2C)CC1	0.501 nM	3 nM	IC50 (Cytochrome P450 3A4): > 10000 nM; Vd [5]: 5.2 L/kg; half-life [6]: 9 h; concentration at 48 h [7]: 3.8 µM; concentration at 1 h [8]: 2.6 µM; bioavailability [9]: 10%; IC50 (Cytochrome P450 2D6): > 10000 nM; IC50 (Cytochrome P450 2C9): > 10000 nM; Kb (Histamine H3 receptor [10]): 10 nM; concentration at 1 h [11]: 17 µM; Activity [12]: 77%; IC50 (Cytochrome P450 1A2): > 10000 nM; IC50 (Cytochrome P450 2C19): > 10000 nM; clearance [13]: 9.3 mL/min/kg
CC(C)N1CCC(COc2ncc(C(=O)c3ccccc3Cl)n2C)CC1	0.00794 nM	1 nM	–
CN(C)CCCSc1ncc(/C(=N\O)c2ccc(Cl)cc2)n1C	3.98 nM	2 nM	–
c1cc(Sc2ccc([C@H]3CC[C@H]4CCCCN43)cc2)ccn1	–	12 nM	–
Cn1c(C(=O)c2ccc(Cl)cc2)cnc1SCCCN1CCCCC1	20 nM	6 nM	half-life [3]: 2.48 h; half-life [4]: 0.117 h
CCCCN(CCCC)CCCOc1ccc(-c2cn3cccc(C)c3n2)cc1	–	4 nM	–
Cn1c(C(=O)c2ccc(Cl)cc2)cnc1NCCCN1CCCCC1	39.8 nM	50 nM	half-life [3]: > 3 h; half-life [4]: 0.0667 h
Cn1c(C(=O)c2ccc(Cl)cc2)cnc1OCCCN1CCCCC1	12.6 nM	14 nM	half-life [3]: > 3 h; half-life [4]: 0.917 h
CC(C)c1ccc(C(=O)c2cnc(OCC3CCN(C(C)C)CC3)n2C)cc1	1.26 nM	9 nM	–
CC(C)N1CCC(Sc2ncc(C(=O)c3ccc(Cl)cc3)n2C)CC1	0.501 nM	2 nM	–
CC(C)N1CCC(COc2ncc(C(=O)c3ccc(C(F)(F)F)cc3)n2C)CC1	0.501 nM	4 nM	–
CN(C)CCCSc1ncc(C(=O)c2ccc(Cl)cc2)n1C	2 nM	5 nM	–
CC(C)N1CCC(COc2ncc(C(=O)c3cccc(Cl)c3)n2C)CC1	0.2 nM	5 nM	–
CC(C)N1CCC(Oc2ncc(C(=O)c3ccc(Cl)cc3)n2C)CC1	6.31 nM	10 nM	–
